Results on two molecules are retold here after PMC4731470, “Inhibitory Effect of Bridged Nucleosides on Thermus aquaticus DNA Polymerase and Insight into the Binding Interactions” (PLoS ONE, 2016).

Assay [1] deals with T1, Taq DNA polymerase (Thermus aquaticus, UniProt P19821).
T1 construct: gene polA
The assay can be described thus: TaqMan qPCR kinetics (double-reciprocal plot); IC50 also by TaqMan qPCR and EvaGreen primer extension assay. The format is biochemical. On the technique in general: Real-time PCR tracks product formation cycle by cycle.

Assay [2] deals with T1, Taq DNA polymerase. The assay can be described thus: TaqMan qPCR (IC50 […]); EvaGreen primer extension assay (IC50 […]). The format is biochemical.

As usually defined, the Ki is a dissociation constant, usually derived from enzyme kinetics or from competition with a known ligand. Broadly, the IC50 is the concentration at which inhibition is half-maximal. High values mean weaker potency, low ones greater potency.

T1 sequence (P19821 whole entry): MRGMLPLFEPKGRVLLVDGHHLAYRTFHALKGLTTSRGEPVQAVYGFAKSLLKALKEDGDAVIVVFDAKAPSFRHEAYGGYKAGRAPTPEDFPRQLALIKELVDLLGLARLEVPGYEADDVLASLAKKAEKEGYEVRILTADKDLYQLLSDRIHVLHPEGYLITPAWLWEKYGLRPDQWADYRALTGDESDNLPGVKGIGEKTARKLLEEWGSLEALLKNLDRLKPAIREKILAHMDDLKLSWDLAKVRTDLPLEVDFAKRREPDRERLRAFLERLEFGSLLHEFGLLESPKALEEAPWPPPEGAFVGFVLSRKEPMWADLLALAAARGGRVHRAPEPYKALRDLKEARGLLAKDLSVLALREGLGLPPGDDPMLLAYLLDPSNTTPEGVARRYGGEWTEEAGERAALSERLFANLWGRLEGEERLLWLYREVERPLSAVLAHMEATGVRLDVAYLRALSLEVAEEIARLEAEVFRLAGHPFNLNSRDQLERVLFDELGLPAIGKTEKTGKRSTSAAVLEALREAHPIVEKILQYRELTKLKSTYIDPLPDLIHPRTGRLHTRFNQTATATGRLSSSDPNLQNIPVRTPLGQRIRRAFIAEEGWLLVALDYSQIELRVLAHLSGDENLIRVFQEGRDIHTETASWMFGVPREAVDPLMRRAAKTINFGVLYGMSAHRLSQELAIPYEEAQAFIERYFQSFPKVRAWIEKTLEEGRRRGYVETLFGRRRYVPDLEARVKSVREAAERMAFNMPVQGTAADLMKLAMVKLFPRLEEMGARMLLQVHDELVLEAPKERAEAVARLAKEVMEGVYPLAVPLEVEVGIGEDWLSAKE

As to `Cc1cn([C@@H]2O[C@@]3(CO)CO[C@@H]2[C@@H]3O)c(=O)[nH]c1=O` [2',4'-bridged thymidine], the Ki at Taq DNA polymerase [1] was found to be 9.7 ± 1.1 µM.

With `Nc1ccn([C@H]2CC[C@@H](COP(=O)(O)OP(=O)(O)OP(=O)(O)O)O2)c(=O)n1` [ddCTP], the half-maximal inhibitory concentration (IC50) against Taq DNA polymerase [2] came out at 300 ± 100 µM.
